Laboratory results published in the NIST ThermoML archive (doi:10.1016/j.jct.2009.05.013).
Where “and” joins values, the source holds several entries; their conditions need not be identical. Equal entries are not always repeated. ± gives the expanded uncertainty stated by the source.

Settings: Crystal, Calculated from knudsen effusion weight loss

In the case of `Nc1cc(Cl)c(Cl)cc1[N+](=O)[O-]` [4,5-dichloro-2-nitrobenzenamine], the “vapor or sublimation pressure” value (351.32 K) is reported as 0.000199 ± 1e-05 kPa and 0.000196 ± 1e-05 kPa and 0.000193 ± 1e-05 kPa, the “vapor or sublimation pressure” value (353.21 K) is reported as 0.000251 ± 1.3e-05 kPa and 0.000243 ± 1.2e-05 kPa and 0.000239 ± 1.2e-05 kPa and the “vapor or sublimation pressure” value (355.25 K) is reported as 0.000288 ± 1.4e-05 kPa and 0.000286 ± 1.4e-05 kPa. The “vapor or sublimation pressure” value (357.24 K) was 0.000364 ± 1.8e-05 kPa and 0.000355 ± 1.8e-05 kPa, the “vapor or sublimation pressure” value (359.42 K) was 0.000463 ± 2.3e-05 kPa and 0.000453 ± 2.3e-05 kPa and 0.000452 ± 2.3e-05 kPa and the “vapor or sublimation pressure” value (361.45 K) was 0.000565 ± 2.8e-05 kPa and 0.000558 ± 2.8e-05 kPa and 0.000552 ± 2.8e-05 kPa. The “vapor or sublimation pressure” value (363.23 K) was 0.000665 ± 3.3e-05 kPa and 0.000673 ± 3.4e-05 kPa and 0.000675 ± 3.4e-05 kPa, the “vapor or sublimation pressure” value (365.49 K) was 0.000831 ± 4.2e-05 kPa and 0.000843 ± 4.2e-05 kPa and 0.000807 ± 4e-05 kPa and the “vapor or sublimation pressure” value (367.38 K) was 0.000995 ± 5e-05 kPa and 0.000996 ± 5e-05 kPa and 0.000976 ± 4.9e-05 kPa.
